This assay deals with TGF-b induced Endothelin-1 production. The assay is described as follows: ET-1 assay: inhibitory effect on TGF-b induced endothelin-1 production. Conditions: Homo sapiens, Fibroblast; fibroblasts, stimulant (TGFb, serum, LPA etc), ET-1 in media by ELISA, 4-parameter fit. It is filed as cell-based. A digest of the protocol: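 Fibroblasts (primary human lung/dermal, HFL-1, 3T3) serum-starved 0-48 h, preincubated ~30 min with compound, then stimulated (TGFb, serum or LPA) for 16-48 h. Secreted ET-1 measured by ELISA; EC50 from 4-parameter logistic fit, with CC50 from ATPlite in the same wells.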

As usually defined, the EC50 is the concentration giving half of the maximal effect. Low readings indicate higher potency in that assay, high ones lower potency in that assay.

For the molecule `Cc1cc(=O)n(-c2ccc(OC(F)(F)F)cc2)cc1-c1ccccc1F` [Compound 194], the EC50 was < 50 µM.

Regarding `O=c1ccc(-c2cccc(Cl)c2)cn1-c1ccncc1` [Compound 323], the EC50 was > 200 µM. Turning to `CCOc1ccc(-c2c(-c3ccc(F)cc3)c(=O)c2=O)c(C)c1` [Compound 667], the EC50 was < 50 µM.

`Cn1cc(-c2cn(-c3ccc(OC(F)(F)F)cc3)c(=O)c3c2CCN3C(=O)OC(C)(C)C)cn1` [Compound 690]: the concentration giving a half-maximal response (EC50) was < 50 µM. In the case of `Cc1nc2ccn(-c3ccc(OC(F)(F)F)cc3)c(=O)c2s1` [compound 585] it was > 200 µM. With `Cn1cc(-c2cn(-c3ccc(OC(F)(F)F)cc3)c(=O)cc2Cl)cn1` [Compound 122], the EC50 was > 200 µM. As to `Cn1cc(-c2cn(-c3ccc(OC(F)(F)F)cc3)c(=O)cc2OCCN2CCCC2=O)cn1` [Compound 146], the concentration giving a half-maximal response (EC50) was > 200 µM. In the case of `Cc1cc(=O)n(-c2ccc3ocnc3c2)cc1-c1cnn(C)c1` [Compound 224], the EC50 was > 200 µM. For `Cc1cc(=O)n(-c2ccc(OC(F)(F)F)cc2)cc1-c1ccc2c(c1)oc(=O)n2CCO` [Compound 558] the value was 50 to 200 µM. For `Cc1cc(=O)n(-c2ccc(OC(F)(F)F)cc2)cc1-c1cnsc1` [Compound 264] the value was > 200 µM; for `COCCOc1cc(=O)n(-c2ccc(OC(F)(F)F)cc2)cc1-c1cnn(C)c1` [Compound 144], > 200 µM; for `O=C1NC=CCN1c1ccccc1` [Compound 365], > 200 µM.

Turning to `CCOc1ccc(-n2cc(-c3cnn(C)c3)c(NCc3cccnc3)cc2=O)c(C)c1` [Compound 701], the EC50 is < 50 µM. Take `Cn1cc(-c2cn(-c3ccc(OC(F)(F)F)cc3)c(=O)cc2OCCN2CCOCC2)cn1` [Compound 147]: the EC50 was > 200 µM. Take `Cn1cc(-c2cn(-c3ccc(C#N)cc3)c(=O)c3nccnc23)cn1` [Compound 398]: the EC50 was > 200 µM.

Consider `O=c1ccc(Br)cn1-c1cccc(F)c1` [Compound 272], for which the EC50 is > 200 µM. In the case of `O=c1ccc(-c2cccc(Cl)c2)cn1-c1ccccc1Cl` [Compound 322] it was < 50 µM; in that of `CC(C)c1cc(=O)n(-c2ccc(OC(F)(F)F)cc2)cc1-c1ccc(F)cc1` [Compound 200], 50 to 200 µM; in that of `Cc1cc(=O)n(-c2ccc(OC(F)(F)F)cc2)cc1-c1ccccc1` [Compound 164], < 50 µM. Regarding `CC(=O)c1ccc(=O)n(-c2cccc(C(F)(F)F)c2)c1` [Compound 11], the half-maximal effective concentration (EC50) was > 200 µM. For `CNC(=O)c1cccc(-n2cc(-c3ccc(F)cc3)c(C)cc2=O)c1` [Compound 190], the EC50 was 50 to 200 µM. Take `CCOc1ccc(-n2cc(-c3cnn(C)c3)c3c(c2=O)CCCC3)c(C)c1` [Compound 35]: the EC50 is < 50 µM. For `Cc1cc(=O)n(-c2cccc3c2OCO3)cc1-c1cnn(C)c1` [Compound 232] the value was > 200 µM; for `O=c1ccc(-c2ccc(F)cc2)nn1-c1ccc(OC(F)(F)F)cc1` [Compound 362], > 200 µM. In the case of `Cn1cc(-c2cn(-c3ccc(OC(F)(F)F)cc3)c(=O)c3nc[nH]c23)cn1` [Compound 57] it was > 200 µM. `O=c1ncc(-c2ccc(F)cc2)cn1-c1ccccc1` [Compound 356] yielded an EC50 of 50 to 200 µM. Regarding `CCn1cc(-c2cn(-c3ccc(OC(F)(F)F)cc3)c(=O)c3c2ncn3CC)cn1` [Compound 670], the EC50 is < 50 µM. Consider `Cc1cc(=O)n(-c2ccc(OC(F)(F)F)cc2)cc1-n1ccnc1` [Compound 244], for which the EC50 is > 200 µM. Regarding `CC(C)OC(=O)Nc1cc(=O)n(-c2ccc(OC(F)(F)F)cc2)cc1-c1cnn(C)c1` [Compound 139], the EC50 is > 200 µM. For `Cc1cc(=O)n(-c2ccc(Cl)cc2)cc1-c1ccc(F)cc1` [Compound 181] the value was > 200 µM; for `O=c1c2scnc2c(-c2cn[nH]c2)cn1-c1ccc(OC(F)(F)F)cc1` [Compound 582], < 50 µM; for `Cn1cc(-c2cn(-c3ccc(OC(F)(F)F)cc3)c(=O)cc2N2CCCCC2)cn1` [Compound 127], > 200 µM. Turning to `CCn1nnc2c(=O)[nH]cc(-c3cnn(C)c3)c21` [Compound 622], the EC50 is > 200 µM. In the case of `CCOc1ccc(-n2cc(-c3cccc(Cl)c3)ccc2=O)c(C)c1` [Compound 321] it was < 50 µM; in that of `O=c1cc(NCc2ncccn2)ccn1-c1ccc(OC(F)(F)F)cc1` [Compound 546], > 200 µM. `Cc1cc(-c2cnn(C)c2)cn(-c2ccc(OC(F)(F)F)cc2)c1=O` [Compound 352] gave an EC50 of 50 to 200 µM. In the case of `COc1ccc(CN(C)c2cc(=O)n(-c3ccc(OC(F)(F)F)cc3)cc2-c2cnn(C)c2)cc1` [Compound 135] it was 50 to 200 µM; in that of `Cn1cc(-c2cn(-c3ccc(OC(F)(F)F)cc3)c(=O)cc2Oc2ccc(Cl)cc2)cn1` [Compound 412], > 200 µM.

Turning to `O=c1ccc(-c2cn[nH]c2)cn1-c1cccc(F)c1` [Compound 372], the EC50 is > 200 µM.

As for `O=c1ccc(-c2ccc(F)cc2)cn1-c1ccccc1Cl` [Compound 291], the EC50 is > 200 µM. As for `Cn1cc(-c2cn(-c3ccc(OC(F)(F)F)cc3)c(=O)cc2NCCc2ccccc2)cn1` [Compound 131], the EC50 was > 200 µM. Take `Cc1n[nH]c(C)c1-c1ccc(=O)n(-c2cccc(F)c2)c1` [Compound 381]: the EC50 was > 200 µM.

Take `O=c1cc(OCc2ccccc2)c(-c2ccc(F)cc2)cn1-c1ccc(OC(F)(F)F)cc1` [Compound 91]: the EC50 is > 200 µM. Take `O=c1c2c(c(-c3ccc(F)cc3)cn1-c1ccc(OC(F)(F)F)cc1)CCCC2` [Compound 32]: the EC50 was > 200 µM. Regarding `O=c1c2[nH]nnc2c(-c2cn[nH]c2)cn1-c1ccc(OC(F)(F)F)cc1` [Compound 678], the EC50 fell in the range of 50 to 200 µM.

`Cn1cc(-c2cc(=O)n(-c3ccc(OC(F)(F)F)cc3)cc2-c2cnn(C)c2)cn1` [Compound 708] registered an EC50 of 50 to 200 µM. In the case of `Cn1cc(-c2cnc(=O)n(-c3ccccc3)c2)cn1` [Compound 355], the EC50 was > 200 µM.

Regarding `Cn1cc(-c2cn(-c3ccc(OC(F)(F)F)cc3)c(=O)cc2N2CCOCC2)cn1` [Compound 128], the EC50 was < 50 µM. With `Cc1cc(=O)n(-c2ccccc2)cc1C` [Compound 366], the EC50 is > 200 µM. On to `CCn1nnc2c(-c3cn[nH]c3)cn(-c3ccc(OC(F)(F)F)cc3)c(=O)c21` [Compound 634], for which the EC50 was < 50 µM. Consider `O=c1ccc(-c2ccccc2)cn1-c1ccc(F)cc1` [Compound 294], for which the EC50 was in the range of 50 to 200 µM.

Turning to `O=C1COCCN1CCOc1cc(=O)n(-c2ccc(OC(F)(F)F)cc2)cc1-c1ccc(F)cc1` [Compound 98], the EC50 was 50 to 200 µM.

Take `Cc1cc(=O)n(-c2ccc(OC(F)(F)F)cc2)cc1C(F)(F)F` [Compound 368]: the EC50 was > 200 µM.

Consider `Cc1cc(=O)n(-c2cccc(N)c2)cc1-c1ccc(F)cc1` [Compound 187], for which the concentration for a half-maximal effect (EC50) is 50 to 200 µM. For `COCCOc1cc(=O)n(-c2ccc(OC(F)(F)F)cc2)cc1-c1ccc(F)cc1` [Compound 96] the value was > 200 µM. Consider `O=c1c(-c2ccc(F)cc2)c(-c2ccc(OC(F)(F)F)cc2)c1=O` [Compound 666], for which the EC50 was < 50 µM. As for `CNc1cc(=O)n(-c2ccc(OC(F)(F)F)cc2)cc1-c1ccc(F)cc1` [Compound 90], the half-maximal effective concentration (EC50) was > 200 µM.
